In patent publication US20200289434A1, “RAPIDLY IMPROVING ENDOTHELIAL FUNCTION, REDUCING ARTERIAL STIFFNESS AND REVERSING CALCIFICATION OF BLOOD VESSELS BY ADMINISTERING VITAMIN K” (KAYDENCE PHARMA AS, priority 2019, published 2020):

Key:
[1] = system: kidney transplantation patients; experiment: Clinical study: pulse wave velocity measurement of arterial stiffness; assay type: in vivo, human; conditions: kidney transplant patients, 360 ug/day, 8 weeks
Experimental: Clinical Study to study the efficacy and safety of Vitamin K2 supplementation on arterial stiffness, the rigidity of arterial walls, in kidney transplantation patients.
A clinical study was carried out. Arterial wall property measurements were taken at t=0 and t=8 weeks and show a dramatic improvement in arterial wall flexibility. This is good support for concluding that the ingestion of vitamin K, even over this short period, is an effective way of improving endothelial function, reducing arterial stiffness and reducing calcification. […] It is surprising and unexpected because calcification is a slow progressive process and it was thought that reversing this process would also be slow and progressive.
Participants were enrolled in a clinical trial in which the effects of vitamin K2 were determined for patients who had recently undergone a kidney transplant. At the beginning of the study, patients were subjected to a non-invasive pulse wave velocity measurement to measure arterial stiffness/flexibility, as well as blood analysis. The study participants were then instructed to receive a specific daily dose of MenaQ7 vitamin K2 menaquinone-7 (360 ug/day) for a total of 8 weeks. At the end of 8 weeks, patients were again examined with a follow-up examination, a non-invasive pulse wave velocity measurement and blood analysis and drug treatment was discontinued.

ApoE/LDLR−/− mice = experiment: Example 2: nitrite and nitrate concentration in plasma (ENO-20); assay type: in vivo; conditions: two months
Experimental: Nitrite (NO2−) and nitrate (NO3−) concentration in plasma—HPLC-based ENO-20
Blood samples were collected from heart into test tubes containing additional anticoagulant and centrifuged at 1000 g for 10 min at 4° C. The samples were used for HPLC measurement of nitrate (NO3^−) and nitrite (NO2^−) concentrations in plasma by an ENO-20 NOx Analyzer.

SMILES: CC(C)=CCC/C(C)=C/CC/C(C)=C/CC/C(C)=C/CC/C(C)=C/CC/C(C)=C/CC/C(C)=C/CC1=C(C)C(=O)c2ccccc2C1=O [MK-7, menaquinone-7]
- mean reduction in measured pulse-wave velocity [1]: 30%
- concentration of NO3− in plasma (ApoE/LDLR−/− mice; 0.03 or 10 mg/kg b.w./day): did not change significantly
- increase in NO2− concentration in plasma (ApoE/LDLR−/− mice; high dose 10 mg/kg b.w./day): ~42%
- increase in NO2− concentration in plasma (ApoE/LDLR−/− mice; low dose 0.03 mg/kg b.w./day): about 58%
